Columns and labels:
[1] = test system: Desulfovibrio alaskensis 14563; test: H2S and Log (Growth) efficacy against SRB, 96-Well Plate Method; format: cell-based
Protocol: A lyophilized Desulfovibrio alaskensis 14563, Desulfovibrio longus 51456, and Desulfovibrio gabonensis 700201 pure cultures received from ATCC were resuspended individually in 500 ul of MB 1250. Aseptically, the content was transferred to a 5-mL tube of MB1250 medium. The cultures were incubated in an anaerobic chamber at 30° C. for 72 hrs. Subsequently, an individual stock culture with a final concentration of 25% glycerol were prepared by adding equal volumes of culture and 50% glycerol. 1 ml of the cultures were then transferred to 2-ml cryogenic vials and stored at −80° C. The purity of the stock cultures was evaluated through PCR, by amplifying the 16S rDNA region, and thus, it was verified that the original ATCC sample was a pure culture. 48-hour cultures of ATCC Desulfovibrio alaskensis 14563, Desulfovibrio longus 51456, and Desulfovibrio gabonensis 700201 were prepared in an anaerobic chamber. Each culture was prepared as a 1:10 culture by taking 1 milliliter (mL) of a pure culture and inoculating 9 milliliters (mL) of fresh MB1250 media. The Desulfovibrio alaskensis 14563 and Desulfovibrio gabonensis 700201 were all grown at 30° C. and the Desulfovibrio longus 51456 culture was grown at 35° C.
After the 48-hour incubation, 600 microliters (μL) were taken from each culture and optical density (OD) was measured using a Thermofisher Spectronic 200 Spectrophotometer at 600 nm. Each culture was diluted to 0.05 OD600 in fresh MB1250 media and added to the 96 well plates. Edge wells were not used due to their inherent variability and evaporation of the media. Each of the components were added at their respective concentrations for a final volume of 500 μL per well. In Table 3, 6 and 7, the concentrations of the compound used for the experiments are listed. Each experiment was done with at least three replicates for different treatments and non-treatment controls. […] Plates were then sealed with a titer-top and placed into anaerobic boxes and incubated in an anaerobic incubator at 30° C.
At each time point, sulfide samples were taken, and enumeration plates were made. Enumeration plates were made to determine the log growth in each dosed sample. For this process, enumeration plates were prepared by adding 180 μL fresh media MB1250 containing 0.01 wt % ferrous ammonium sulfate. 20 μL was taken from each well of the challenge plates and transferred to the enumeration plates using a 20-200 μL multichannel pipette. Enumeration plates were mixed three times using the multichannel pipette and serial diluted down the plate tenfold (20 μL into 180 μL). This serial dilution process was repeated for all challenge plate rows giving a total of 6 enumeration plates.
After 7 days these enumeration plates were read. The ferrous ammonium sulfate in each plate would be converted to iron sulfide, changing wells with SRB growth from clear to black. By counting the number of black wells in a row, the log growth from the original well in the challenge plate can be determined.
To determine hydrogen sulfide production in each sample, sulfide samples were also taken from each challenge plate. From each well, 9 μL were taken and added to 60 μL of 2% zinc acetate with 0.02% acetic acid. Then, 180 μL of milliQ water was added. 60 μL of stock solution 1 containing 64% sulfuric acid, <1% Dimethyl-4-phenylenediamine (DMPD), water to 100% was added to each well on the plates. This was followed by 3 μL of stock solution 3 containing 50% Iron (III) chloride. All chemicals are ordered from Fisher Scientific and used as received. These were mixed three times and read after 15 minutes. The plates were read at 670 nm using a Biotek microplate reader. Absorbance readings were converted to mM using a standard curve and this was converted to parts per million using the molar mass of sulfur. The standard curves were made using sodium sulfide nonahydrate solutions to give final solutions of 0, 0.125, 0.25 0.5, 1.0, and 1.5 ppm.

[2] = test system: sulfate reducing bacteria; test: Efficacy in inhibiting H2S production from sulfate reducing bacteria; format: cell-based
Protocol: To understand the hydrogen sulfide inhibition efficacy of the N-hydroxycarboxamide compounds of the present invention, several compounds were tested. Some compounds that can be used in this H2S inhibiting composition are disclosed in Table 2. For the testing procedures, the compounds were dissolved in DMSO, resulting in a stock solution of about 8000-100000 ppm, which was subsequently diluted in 96-well plates or 10 mL serum vials containing media and selected culture to give varying concentrations from 0.09 to 1000 ppm of the compounds in final solution for efficacy testing.
Strains of commonly found bacteria were used for testing the efficacy of the compounds, viz. Desulfovibrio alaskensis, Desulfovibrio longus and Desulfovibrio gabonensis. Media for the cultures was also prepared by using a standard method. The cultures were aseptically used and incubated under anaerobic conditions. Two well established methods were used for testing various compounds:
The compounds C1, C12, C14, C15 and C16 were tested individually to understand each of their efficacies in inhibiting the H2S production from sulfate reducing bacteria, under standard temperature and pressure conditions. The efficacy of compounds C14 and C15 against hydrogen sulfide production are disclosed in Example 1, Tables 6 and 7.

O=C(NO)c1ccccc1 [C15]
H2S ([1]; Table 6 run, 2 days, 7.615 PPM): 103.6 PPM | Log (Growth) ([1]; Table 6 run, 2 days, 7.615 PPM): 7.7 | H2S ([1]; Table 6 run, 2 days, 15.75 PPM): 54.7 PPM | Log (Growth) ([1]; Table 6 run, 2 days, 15.75 PPM): 7.7 | H2S ([1]; Table 6 run, 2 days, 31.25 PPM): 54.4 PPM | Log (Growth) ([1]; Table 6 run, 2 days, 31.25 PPM): 7.0 | H2S ([1]; Table 6 run, 2 days, 125 PPM): 130.2 PPM | Log (Growth) ([1]; Table 6 run, 2 days, 125 PPM): 7.3 | H2S ([1]; Table 6 run, 2 days, 500 PPM): 155.7 PPM | Log (Growth) ([1]; Table 6 run, 2 days, 500 PPM): 7.3 | H2S ([1]; Table 6 run, 2 days, 1000 PPM): 130.7 PPM | Log (Growth) ([1]; Table 6 run, 2 days, 1000 PPM): 8.0 | H2S ([1]; Table 6 run, 5 days, 7.615 PPM): 35.2 PPM | Log (Growth) ([1]; Table 6 run, 5 days, 7.615 PPM): 8.0 | H2S ([1]; Table 6 run, 5 days, 15.75 PPM): 42.7 PPM | Log (Growth) ([1]; Table 6 run, 5 days, 15.75 PPM): 7.3 | H2S ([1]; Table 6 run, 5 days, 31.25 PPM): 26.3 PPM | Log (Growth) ([1]; Table 6 run, 5 days, 31.25 PPM): 7.7 | H2S ([1]; Table 6 run, 5 days, 125 PPM): 55.5 PPM | Log (Growth) ([1]; Table 6 run, 5 days, 125 PPM): 7.0 | H2S ([1]; Table 6 run, 5 days, 500 PPM): 31.8 PPM | Log (Growth) ([1]; Table 6 run, 5 days, 500 PPM): 7.0 | H2S ([1]; Table 6 run, 5 days, 1000 PPM): 73.3 PPM | Log (Growth) ([1]; Table 6 run, 5 days, 1000 PPM): 8.0 | activity in reducing H2S production ([2]; Tables 6 and 7): did not show significant activity

CCCCCCCC(=O)NO [C16]
H2S ([1]; Table 7 run, 2 days, 7.615 PPM): 83.5 PPM | Log (Growth) ([1]; Table 7 run, 2 days, 7.615 PPM): 7.7 | H2S ([1]; Table 7 run, 2 days, 15.75 PPM): 76.9 PPM | Log (Growth) ([1]; Table 7 run, 2 days, 15.75 PPM): 7.7 | H2S ([1]; Table 7 run, 2 days, 31.25 PPM): 35.1 PPM | Log (Growth) ([1]; Table 7 run, 2 days, 31.25 PPM): 7.3 | H2S ([1]; Table 7 run, 2 days, 125 PPM): 13.3 PPM | Log (Growth) ([1]; Table 7 run, 2 days, 125 PPM): 6.3 | H2S ([1]; Table 7 run, 2 days, 500 PPM): 2.7 PPM | Log (Growth) ([1]; Table 7 run, 2 days, 500 PPM): 5.3 | H2S ([1]; Table 7 run, 2 days, 1000 PPM): 2.2 PPM | Log (Growth) ([1]; Table 7 run, 2 days, 1000 PPM): 3.0 | H2S ([1]; Table 7 run, 5 days, 7.615 PPM): 27.7 PPM | Log (Growth) ([1]; Table 7 run, 5 days, 7.615 PPM): 7.3 | H2S ([1]; Table 7 run, 5 days, 15.75 PPM): 29.2 PPM | Log (Growth) ([1]; Table 7 run, 5 days, 15.75 PPM): 7.0 | H2S ([1]; Table 7 run, 5 days, 31.25 PPM): 22.1 PPM | Log (Growth) ([1]; Table 7 run, 5 days, 31.25 PPM): 7.3 | H2S ([1]; Table 7 run, 5 days, 125 PPM): 6.9 PPM | Log (Growth) ([1]; Table 7 run, 5 days, 125 PPM): 5.0 | H2S ([1]; Table 7 run, 5 days, 500 PPM): 2.1 PPM | Log (Growth) ([1]; Table 7 run, 5 days, 500 PPM): 4.3 | H2S ([1]; Table 7 run, 5 days, 1000 PPM): 2.0 PPM | Log (Growth) ([1]; Table 7 run, 5 days, 1000 PPM): 0.0 | efficacy for inhibiting hydrogen sulfide production ([2]; anaerobic conditions): high efficacy
